Measurements as given in PubChem BioAssay (NCI).
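The compound was tested at five concentrations on cells cultured in 96-well plates, with a 48-hour exposure period. GI50 marks 50% less growth. TGI marks complete inhibition of growth.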

Tests used:
Assay in all cases: growth of human tumour cells (NCI), 48 h
SF-295 CNS = test system: SF-295 CNS
SF-268 CNS = test system: SF-268 CNS
COLO 205 colon = test system: COLO 205 colon
MDA-MB-231 breast = test system: MDA-MB-231 breast
OVCAR-8 ovarian = test system: OVCAR-8 ovarian
MOLT-4 leukemia = test system: MOLT-4 leukemia
LOX IMVI melanoma = test system: LOX IMVI melanoma
HOP-62 NSCLC = test system: HOP-62 NSCLC
IGROV1 ovarian = test system: IGROV1 ovarian
T-47D breast = test system: T-47D breast
NCI-H460 lung = test system: NCI-H460 lung
HCT-116 colon = test system: HCT-116 colon
MALME-3M melanoma = test system: MALME-3M melanoma
HCC-2998 colon = test system: HCC-2998 colon
RPMI-8226 leukemia = test system: RPMI-8226 leukemia
CCRF-CEM leukemia = test system: CCRF-CEM leukemia
HS 578T breast = test system: HS 578T breast
A549 NSCLC = test system: A549 NSCLC
KM12 colon = test system: KM12 colon
OVCAR-5 ovarian = test system: OVCAR-5 ovarian
MDA-MB-435 = test system: MDA-MB-435
OVCAR-3 ovarian = test system: OVCAR-3 ovarian
A498 renal = test system: A498 renal
NCI-H226 lung = test system: NCI-H226 lung
SW-620 colon = test system: SW-620 colon
EKVX NSCLC = test system: EKVX NSCLC
K-562 leukemia = test system: K-562 leukemia
SK-OV-3 ovarian = test system: SK-OV-3 ovarian
SK-MEL-28 melanoma = test system: SK-MEL-28 melanoma
UO-31 renal = test system: UO-31 renal
BT-549 breast = test system: BT-549 breast
786-0 renal = test system: 786-0 renal
OVCAR-4 ovarian = test system: OVCAR-4 ovarian
SNB-75 CNS = test system: SNB-75 CNS
UACC-257 melanoma = test system: UACC-257 melanoma
NCI-H23 lung = test system: NCI-H23 lung
UACC-62 melanoma = test system: UACC-62 melanoma
CAKI-1 renal = test system: CAKI-1 renal
TK-10 renal = test system: TK-10 renal
SF-539 CNS = test system: SF-539 CNS
DU-145 prostate = test system: DU-145 prostate
RXF 393 renal = test system: RXF 393 renal
SK-MEL-5 melanoma = test system: SK-MEL-5 melanoma
NCI-H522 lung = test system: NCI-H522 lung
PC-3 prostate = test system: PC-3 prostate
NCI/ADR-RES ovarian = test system: NCI/ADR-RES ovarian
HCT-15 colon = test system: HCT-15 colon
MCF7 breast = test system: MCF7 breast
SN12C renal = test system: SN12C renal
SNB-19 CNS = test system: SNB-19 CNS
M14 melanoma = test system: M14 melanoma
ACHN renal = test system: ACHN renal
HOP-92 NSCLC = test system: HOP-92 NSCLC
HL-60(TB) leukemia = test system: HL-60(TB) leukemia
HT29 colon = test system: HT29 colon

O=C1c2ccn(CCCCN(CCO)CCO)c2C(=O)c2c1c(O)c1ccccc1c2O
GI50 (SF-295 CNS): 10.8 µM
TGI (SF-295 CNS): 42 µM
GI50 (SF-268 CNS): 13.7 µM
TGI (SF-268 CNS): > 63.2 µM
GI50 (COLO 205 colon): 4.45 µM
TGI (COLO 205 colon): > 100 µM
GI50 (MDA-MB-231 breast): 1.89 µM
TGI (MDA-MB-231 breast): 3.97 µM
GI50 (OVCAR-8 ovarian): 3.61 µM
TGI (OVCAR-8 ovarian): > 100 µM
GI50 (MOLT-4 leukemia): 2.55 µM
GI50 (LOX IMVI melanoma): 1.04 µM
TGI (LOX IMVI melanoma): 3.64 µM
GI50 (HOP-62 NSCLC): 16.3 µM
TGI (HOP-62 NSCLC): > 50.5 µM
GI50 (IGROV1 ovarian): 4.97 µM
TGI (IGROV1 ovarian): > 100 µM
GI50 (T-47D breast): 22.9 µM
TGI (T-47D breast): > 69.6 µM
GI50 (NCI-H460 lung): 7.1 µM
TGI (NCI-H460 lung): 26.1 µM
GI50 (HCT-116 colon): 2.04 µM
GI50 (MALME-3M melanoma): 10 µM
TGI (MALME-3M melanoma): 35.2 µM
GI50 (HCC-2998 colon): 3.55 µM
TGI (HCC-2998 colon): 14.2 µM
GI50 (RPMI-8226 leukemia): 5.62 µM
TGI (RPMI-8226 leukemia): 14.8 µM
GI50 (CCRF-CEM leukemia): 2.07 µM
TGI (CCRF-CEM leukemia): 11.2 µM
GI50 (HS 578T breast): 17.4 µM
TGI (HS 578T breast): 59.3 µM
GI50 (A549 NSCLC): 2.32 µM
TGI (A549 NSCLC): 7.33 µM
GI50 (KM12 colon): 1.75 µM
TGI (KM12 colon): 3.59 µM
GI50 (OVCAR-5 ovarian): 19.1 µM
TGI (OVCAR-5 ovarian): 45 µM
GI50 (MDA-MB-435): 3.04 µM
GI50 (OVCAR-3 ovarian): 22.2 µM
TGI (OVCAR-3 ovarian): > 100 µM
GI50 (A498 renal): 13.4 µM
TGI (A498 renal): 39.7 µM
GI50 (NCI-H226 lung): 64 µM
TGI (NCI-H226 lung): > 100 µM
GI50 (SW-620 colon): 3.12 µM
TGI (SW-620 colon): 14.7 µM
GI50 (EKVX NSCLC): 23.3 µM
TGI (EKVX NSCLC): > 75.7 µM
GI50 (K-562 leukemia): 4.41 µM
TGI (K-562 leukemia): > 100 µM
GI50 (SK-OV-3 ovarian): 7.74 µM
TGI (SK-OV-3 ovarian): > 43.3 µM
GI50 (SK-MEL-28 melanoma): 5.05 µM
TGI (SK-MEL-28 melanoma): > 100 µM
GI50 (UO-31 renal): 12.5 µM
TGI (UO-31 renal): > 100 µM
GI50 (BT-549 breast): 20.7 µM
TGI (BT-549 breast): 60.9 µM
GI50 (786-0 renal): 5.39 µM
TGI (786-0 renal): > 48.4 µM
GI50 (OVCAR-4 ovarian): 31.7 µM
TGI (OVCAR-4 ovarian): > 100 µM
GI50 (SNB-75 CNS): 21.4 µM
TGI (SNB-75 CNS): 65.5 µM
GI50 (UACC-257 melanoma): 4.83 µM
TGI (UACC-257 melanoma): 24.4 µM
GI50 (NCI-H23 lung): 1.66 µM
TGI (NCI-H23 lung): 3.02 µM
GI50 (UACC-62 melanoma): 1.09 µM
TGI (UACC-62 melanoma): 2.77 µM
GI50 (CAKI-1 renal): 8.24 µM
TGI (CAKI-1 renal): 21.7 µM
GI50 (TK-10 renal): 6.66 µM
TGI (TK-10 renal): 29.6 µM
GI50 (SF-539 CNS): 7.88 µM
TGI (SF-539 CNS): > 80.6 µM
GI50 (DU-145 prostate): 15.2 µM
TGI (DU-145 prostate): 34.8 µM
GI50 (RXF 393 renal): 5.19 µM
TGI (RXF 393 renal): > 58.6 µM
GI50 (SK-MEL-5 melanoma): 13.2 µM
TGI (SK-MEL-5 melanoma): 78.9 µM
GI50 (NCI-H522 lung): 9.29 µM
TGI (NCI-H522 lung): > 92.7 µM
GI50 (PC-3 prostate): 3.05 µM
TGI (PC-3 prostate): > 20.7 µM
GI50 (NCI/ADR-RES ovarian): 3.31 µM
TGI (NCI/ADR-RES ovarian): 12.7 µM
GI50 (HCT-15 colon): 0.948 µM
TGI (HCT-15 colon): 2.14 µM
GI50 (MCF7 breast): 6.12 µM
TGI (MCF7 breast): > 58.1 µM
GI50 (SN12C renal): 6.85 µM
TGI (SN12C renal): 25 µM
GI50 (SNB-19 CNS): 20.2 µM
TGI (SNB-19 CNS): > 100 µM
GI50 (M14 melanoma): 2.37 µM
GI50 (ACHN renal): 21.6 µM
TGI (ACHN renal): 57.7 µM
GI50 (HOP-92 NSCLC): 17.7 µM
TGI (HOP-92 NSCLC): 50.8 µM
GI50 (HL-60(TB) leukemia): 3.17 µM
GI50 (HT29 colon): 3.39 µM
TGI (HT29 colon): > 100 µM
